Reference: PMC10222378 (Pharmaceuticals, 2023)
“And” between values parts separate entries of the source, which are not always exact repeats. Equal entries are not always repeated. “Also recorded” adds a separate entry of the source. Where two headings read alike, the source gives them in different places.

Experiments:
human lymphocytes = experiment: CFSE lymphocyte proliferation assay after PHA activation; format: cell-based; settings: 200 μM ClGBI
Method: In this method, following the loading of cells with CFSE dye, each round of cell division is apparent by the reduced dye content and consequent lower fluorescence intensity of the daughter cells. […] Peripheral blood mononuclear cells (PBMCs) were isolated from the heparinized blood of healthy donors (n = 3) using the Ficoll–Hypaque separation method. […] The cells were grown in a humidified chamber at 37 °C and 5% CO2 for 6 days. As a negative control, unstimulated CFSE-labeled PBMCs were cultured in the same condition. […] After 6 days of proliferation, the CFSE-labeled cells were collected and analyzed by flow cytometry in an ACEA NovoCyte 2000R cytometer (Agilent, Santa Clara, CA, USA).

hKV1.4-IR = hKV1.4-IR (Homo sapiens, UniProt P22459); experiment: Whole-cell patch clamp on hKV1.4-IR in CHO cells; format: cell-based; settings: estimated from single concentration (200 μM), bimolecular interaction assumed, n = 6, read-out: estimated Kd
Excerpt: (§1) Pulses were delivered every 30 s. […] […]. Red dashed line indicates no effect.
(§2) In general, the holding potential was −120 mV.
(§3) […]. […] […].
(§4) […]. All data are presented as means ± SEM.

hKV1.5 = molecular target: T1, hKV1.5 (Homo sapiens, UniProt P22460); experiment: Whole-cell patch clamp on hKV1.5 in CHO cells; format: cell-based; settings: estimated from single concentration (200 μM), bimolecular interaction assumed, n = 4, read-out: estimated Kd
T1 construct: EYFP (pEYFP vector); expressed in transfected cells; host or cells: CHO cells, transient
Excerpt: as §1, §2, §3, §4

hKV10.1 = molecular target: T2, hKV10.1 (Homo sapiens, UniProt O95259); experiment: Whole-cell patch clamp on hKV10.1 in CHO cells; format: cell-based; settings: estimated from single concentration (200 μM), bimolecular interaction assumed, n = 5, read-out: estimated Kd
T2 construct: host or cells: CHO cells, transient, co-transfected with a separate GFP plasmid
T2 sequence (O95259 1-989): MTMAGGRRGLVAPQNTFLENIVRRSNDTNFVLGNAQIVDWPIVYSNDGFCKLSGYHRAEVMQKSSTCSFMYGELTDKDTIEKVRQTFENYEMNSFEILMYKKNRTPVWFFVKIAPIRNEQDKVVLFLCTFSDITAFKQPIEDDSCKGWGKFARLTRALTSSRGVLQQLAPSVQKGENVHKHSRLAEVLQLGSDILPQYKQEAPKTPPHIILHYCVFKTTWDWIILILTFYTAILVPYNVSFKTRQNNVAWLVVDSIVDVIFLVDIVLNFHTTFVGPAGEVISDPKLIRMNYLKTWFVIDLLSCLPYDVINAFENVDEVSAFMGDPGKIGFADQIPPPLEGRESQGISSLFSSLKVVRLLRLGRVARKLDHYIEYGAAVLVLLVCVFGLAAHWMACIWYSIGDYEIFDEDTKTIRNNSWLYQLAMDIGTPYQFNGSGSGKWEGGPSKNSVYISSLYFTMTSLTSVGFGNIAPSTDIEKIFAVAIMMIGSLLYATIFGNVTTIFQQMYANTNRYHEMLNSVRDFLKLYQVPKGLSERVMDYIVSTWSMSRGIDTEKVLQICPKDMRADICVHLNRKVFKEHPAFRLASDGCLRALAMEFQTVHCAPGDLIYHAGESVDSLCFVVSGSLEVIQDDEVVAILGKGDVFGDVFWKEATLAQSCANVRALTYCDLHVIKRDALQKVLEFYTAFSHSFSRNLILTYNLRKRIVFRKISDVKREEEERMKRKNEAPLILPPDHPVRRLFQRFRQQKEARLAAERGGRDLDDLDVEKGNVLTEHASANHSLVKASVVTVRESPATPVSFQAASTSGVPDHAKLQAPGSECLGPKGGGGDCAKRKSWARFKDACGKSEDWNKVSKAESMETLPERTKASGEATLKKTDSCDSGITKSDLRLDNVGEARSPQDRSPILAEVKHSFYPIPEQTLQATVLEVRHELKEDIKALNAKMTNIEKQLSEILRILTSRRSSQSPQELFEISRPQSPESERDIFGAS
Excerpt: as §1, §2, §3, §4

hKCa3.1 = molecular target: T3, hKCa3.1 (Homo sapiens, UniProt O15554); experiment: Whole-cell patch clamp on hKCa3.1 in CHO cells; format: cell-based
T3 construct: expressed in transfected cells; host or cells: CHO cells, transient
Excerpt: as §1, §2, §3, §4

hNaV1.4 = molecular target: T4, hNaV1.4 (Homo sapiens, UniProt P35499); experiment: Whole-cell patch clamp on hNaV1.4 stably expressed in HEK293 cells; format: cell-based; settings: estimated from single concentration (200 μM), bimolecular interaction assumed, n = 4, read-out: estimated Kd
T4 construct: expressed in transfected cells
Excerpt: as §1, §2, §3, §4

hNaV1.5 = molecular target: T5, hNaV1.5 (Homo sapiens, UniProt Q14524); experiment: Whole-cell patch clamp on hNaV1.5 in CHO cells; format: cell-based; settings: estimated from single concentration (200 μM), bimolecular interaction assumed, n = 6, read-out: estimated Kd
T5 construct: expressed in transfected cells; host or cells: CHO cells, transient
Excerpt: as §1, §2, §3, §4

[1] = molecular target: voltage-gated proton (H+) channel (HV1); parameters: method as in PMID 24912149; settings: known HV1 inhibitor, value quoted in abstract; amphibian expression system; cited from earlier work
hKV11.1 (hERG) = hKV11.1 (hERG) (Homo sapiens, UniProt Q12809); experiment: in vitro; settings: HEK293 cells stably expressing hKV11.1 (hERG), pH 7.35
[2] = tested on: hKV1.1, hKV1.4-IR, hKV1.5, hKV10.1, hKV11.1, hKCa3.1, hNaV1.4, hNaV1.5; experiment: in vitro; settings: human
Method: (A–D) Currents were evoked from holding potentials of –100 mV by depolarizations to +50 mV for the time interval indicated on the panels. […] (E) hKV11.1 currents were measured with a voltage step from a holding potential of –80 mV to +20 mV, followed by a step to –40 mV, during which the peak current was measured. Pulses were delivered every 30 s. […] Red dashed line indicates no effect. Bars represent the mean of 3–8 independent measurements; error bars indicate the SEM.

hKV1.3 [3] = molecular target: T6, hKV1.3 (Homo sapiens, UniProt P22001); experiment: Whole-cell patch clamp on hKV1.3 in activated human lymphocytes; format: cell-based; parameters: endogenous in cells
Excerpt: The essential role of voltage-gated KV1.3 channels in T cell activation and proliferation is well-documented, so we tested whether the proliferation was suppressed in part via a KV1.3 blockade. […]. The open probability of the channel at +50 mV is maximal, and the relatively short duration of the depolarizing periods prevented inactivation. The time between voltage pulses was set to 15 s to avoid the cumulative inactivation of hKV1.3 channels. Under the given experimental conditions (i.e., the voltage protocol used and the lack of Ca^2+ in the pipette solution), the whole-cell currents were conducted exclusively by hKV1.3 channels. […]. Human peripheral blood […] (PBMCs) were isolated from venous blood obtained from anonymized healthy donors. The peripheral blood mononuclear cells were isolated by Histopaque1077 (Sigma-Aldrich Hungary, Budapest, Hungary) density gradient centrifugation. The cells obtained were resuspended in Roswell Park Memorial Institute (RPMI) 1640 medium (Gibco, Cat# 11875085) containing 10% fetal calf serum (FCS, Sigma-Aldrich, St. Louis, MO, USA), 100 μg/mL penicillin, 100 μg/mL streptomycin, and 2 mM L-glutamine, seeded in a 24-well culture plate at a density of 5–6 × 10^5 cells/mL, and grown in a 5% CO2 incubator at 37 °C for 3–5 days. Phytohemagglutinin A (PHA, Sigma-Aldrich, St. Louis, MO, USA) was also added at a concentration of 8–12 μg/mL to the medium to amplify the expression level of KV1.3. CHO cells and PBMCs were gently washed twice with 2 mL of ECS (see below) for the patch clamp experiments. hKV1.3 currents were recorded on activated lymphocytes 3 to 4 days after activation.
as §2, §3, §4
To examine the binding kinetics, RCF was plotted as a function of time. The association time constant (τon) was determined by fitting the data points with a single exponential function, RCF=RCF0×e^−t/τon+C where RCF0 is the RCF value before the addition of the drug, and C is a constant term.

hKV1.1 [4] = molecular target: T7, hKV1.1 (Homo sapiens, UniProt Q09470); experiment: Whole-cell patch clamp on hKV1.1 in CHO cells; format: cell-based; parameters: host or cells: CHO cells, transient; settings: estimated from single concentration (200 μM), bimolecular interaction assumed, n = 5, read-out: estimated Kd
Excerpt: as §1, §2, §3, §4

hKV1.3 [5] = molecular target: T6, hKV1.3; settings: read-out: Kd (concentration of positive control equivalent to its Kd), no reference given; cited from earlier work
hKV1.1 [6] = molecular target: T7, hKV1.1; settings: read-out: Kd (concentration of positive control equivalent to its Kd), no reference given; cited from earlier work

T6 sequence (P22001 whole entry): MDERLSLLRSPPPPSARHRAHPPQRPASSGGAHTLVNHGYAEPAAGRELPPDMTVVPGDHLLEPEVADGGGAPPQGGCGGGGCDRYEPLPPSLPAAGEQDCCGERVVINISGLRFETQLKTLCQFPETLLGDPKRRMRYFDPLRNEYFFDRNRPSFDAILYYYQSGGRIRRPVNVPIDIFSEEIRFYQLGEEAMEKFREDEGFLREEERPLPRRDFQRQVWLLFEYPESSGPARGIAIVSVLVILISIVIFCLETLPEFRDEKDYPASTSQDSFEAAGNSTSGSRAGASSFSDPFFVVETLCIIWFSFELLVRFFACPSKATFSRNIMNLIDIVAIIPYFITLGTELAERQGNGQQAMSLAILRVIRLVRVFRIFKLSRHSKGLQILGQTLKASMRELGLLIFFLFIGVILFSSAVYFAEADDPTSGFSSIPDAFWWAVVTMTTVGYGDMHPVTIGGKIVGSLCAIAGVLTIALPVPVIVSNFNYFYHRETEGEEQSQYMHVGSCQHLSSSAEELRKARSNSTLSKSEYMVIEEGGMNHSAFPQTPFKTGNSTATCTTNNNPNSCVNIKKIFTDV
T7 sequence (Q09470 whole entry): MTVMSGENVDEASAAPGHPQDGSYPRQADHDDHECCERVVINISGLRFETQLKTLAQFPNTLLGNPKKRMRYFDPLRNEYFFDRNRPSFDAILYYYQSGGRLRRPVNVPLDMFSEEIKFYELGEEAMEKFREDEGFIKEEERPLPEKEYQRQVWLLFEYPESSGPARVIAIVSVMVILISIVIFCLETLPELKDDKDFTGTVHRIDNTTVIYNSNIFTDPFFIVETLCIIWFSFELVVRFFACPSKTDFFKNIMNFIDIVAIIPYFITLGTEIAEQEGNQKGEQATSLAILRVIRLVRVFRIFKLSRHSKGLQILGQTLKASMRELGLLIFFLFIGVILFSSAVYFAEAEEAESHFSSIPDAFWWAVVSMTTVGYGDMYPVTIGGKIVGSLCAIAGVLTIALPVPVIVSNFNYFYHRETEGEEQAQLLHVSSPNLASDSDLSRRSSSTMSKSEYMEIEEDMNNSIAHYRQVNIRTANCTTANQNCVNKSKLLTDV
hKV1.4-IR, sequence (P22459 149-653 limits assumed): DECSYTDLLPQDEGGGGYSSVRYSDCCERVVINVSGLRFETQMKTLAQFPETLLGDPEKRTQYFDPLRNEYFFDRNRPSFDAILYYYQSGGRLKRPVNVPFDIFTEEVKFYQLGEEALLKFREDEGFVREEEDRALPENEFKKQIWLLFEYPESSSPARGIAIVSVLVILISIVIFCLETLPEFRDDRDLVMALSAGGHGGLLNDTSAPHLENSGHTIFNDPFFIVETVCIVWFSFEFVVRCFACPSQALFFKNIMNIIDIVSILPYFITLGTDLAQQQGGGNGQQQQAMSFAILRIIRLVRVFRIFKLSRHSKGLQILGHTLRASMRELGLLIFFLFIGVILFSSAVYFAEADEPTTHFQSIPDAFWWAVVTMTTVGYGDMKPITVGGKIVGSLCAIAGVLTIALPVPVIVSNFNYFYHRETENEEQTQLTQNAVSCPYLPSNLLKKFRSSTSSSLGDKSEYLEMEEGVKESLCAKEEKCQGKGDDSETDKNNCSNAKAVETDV
T4 sequence (P35499 whole entry): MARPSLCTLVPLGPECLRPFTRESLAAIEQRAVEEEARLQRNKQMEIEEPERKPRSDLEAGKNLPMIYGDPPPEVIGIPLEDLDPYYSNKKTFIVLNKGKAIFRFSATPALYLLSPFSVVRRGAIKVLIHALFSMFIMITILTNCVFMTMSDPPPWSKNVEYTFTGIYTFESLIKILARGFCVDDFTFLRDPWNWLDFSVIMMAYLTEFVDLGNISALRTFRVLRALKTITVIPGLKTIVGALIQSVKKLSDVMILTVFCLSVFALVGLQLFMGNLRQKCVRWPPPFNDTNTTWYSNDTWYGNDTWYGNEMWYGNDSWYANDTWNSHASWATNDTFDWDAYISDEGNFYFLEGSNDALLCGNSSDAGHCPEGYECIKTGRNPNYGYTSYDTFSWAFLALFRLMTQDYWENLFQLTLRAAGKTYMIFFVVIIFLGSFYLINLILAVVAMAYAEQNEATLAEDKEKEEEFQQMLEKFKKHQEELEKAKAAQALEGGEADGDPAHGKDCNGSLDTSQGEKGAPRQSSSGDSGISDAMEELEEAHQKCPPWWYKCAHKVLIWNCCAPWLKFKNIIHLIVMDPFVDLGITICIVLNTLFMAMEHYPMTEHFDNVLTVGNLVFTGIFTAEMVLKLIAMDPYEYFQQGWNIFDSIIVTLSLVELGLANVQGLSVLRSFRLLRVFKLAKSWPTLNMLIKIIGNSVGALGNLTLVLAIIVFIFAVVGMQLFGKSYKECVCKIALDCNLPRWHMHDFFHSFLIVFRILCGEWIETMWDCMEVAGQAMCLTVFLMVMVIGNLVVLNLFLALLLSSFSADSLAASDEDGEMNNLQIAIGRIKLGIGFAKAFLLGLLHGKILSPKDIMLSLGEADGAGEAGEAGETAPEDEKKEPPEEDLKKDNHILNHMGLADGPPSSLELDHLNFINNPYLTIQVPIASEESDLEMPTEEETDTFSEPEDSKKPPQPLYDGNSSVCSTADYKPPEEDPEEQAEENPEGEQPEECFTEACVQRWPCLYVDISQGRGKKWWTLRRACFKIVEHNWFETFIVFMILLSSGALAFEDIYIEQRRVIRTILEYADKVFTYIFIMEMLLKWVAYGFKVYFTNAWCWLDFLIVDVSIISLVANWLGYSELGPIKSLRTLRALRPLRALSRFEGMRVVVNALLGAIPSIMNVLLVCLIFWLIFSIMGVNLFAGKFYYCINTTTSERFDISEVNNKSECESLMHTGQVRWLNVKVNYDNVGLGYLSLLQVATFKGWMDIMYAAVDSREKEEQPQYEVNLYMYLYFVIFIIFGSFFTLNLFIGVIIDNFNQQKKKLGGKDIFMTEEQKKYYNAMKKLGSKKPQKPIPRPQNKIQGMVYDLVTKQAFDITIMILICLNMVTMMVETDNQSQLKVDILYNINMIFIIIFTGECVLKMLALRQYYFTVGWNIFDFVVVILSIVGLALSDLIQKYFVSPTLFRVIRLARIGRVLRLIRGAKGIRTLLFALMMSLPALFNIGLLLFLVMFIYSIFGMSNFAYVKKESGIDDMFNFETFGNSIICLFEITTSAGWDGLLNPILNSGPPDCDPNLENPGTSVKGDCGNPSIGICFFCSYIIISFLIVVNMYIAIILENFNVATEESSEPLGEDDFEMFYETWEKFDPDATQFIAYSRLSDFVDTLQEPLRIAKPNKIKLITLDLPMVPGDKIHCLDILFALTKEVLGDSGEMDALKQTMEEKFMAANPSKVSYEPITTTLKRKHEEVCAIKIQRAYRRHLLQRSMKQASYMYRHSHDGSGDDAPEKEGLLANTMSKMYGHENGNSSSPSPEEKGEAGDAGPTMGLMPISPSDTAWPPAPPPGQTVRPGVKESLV
hKV11.1 (hERG), sequence (Q12809 whole entry): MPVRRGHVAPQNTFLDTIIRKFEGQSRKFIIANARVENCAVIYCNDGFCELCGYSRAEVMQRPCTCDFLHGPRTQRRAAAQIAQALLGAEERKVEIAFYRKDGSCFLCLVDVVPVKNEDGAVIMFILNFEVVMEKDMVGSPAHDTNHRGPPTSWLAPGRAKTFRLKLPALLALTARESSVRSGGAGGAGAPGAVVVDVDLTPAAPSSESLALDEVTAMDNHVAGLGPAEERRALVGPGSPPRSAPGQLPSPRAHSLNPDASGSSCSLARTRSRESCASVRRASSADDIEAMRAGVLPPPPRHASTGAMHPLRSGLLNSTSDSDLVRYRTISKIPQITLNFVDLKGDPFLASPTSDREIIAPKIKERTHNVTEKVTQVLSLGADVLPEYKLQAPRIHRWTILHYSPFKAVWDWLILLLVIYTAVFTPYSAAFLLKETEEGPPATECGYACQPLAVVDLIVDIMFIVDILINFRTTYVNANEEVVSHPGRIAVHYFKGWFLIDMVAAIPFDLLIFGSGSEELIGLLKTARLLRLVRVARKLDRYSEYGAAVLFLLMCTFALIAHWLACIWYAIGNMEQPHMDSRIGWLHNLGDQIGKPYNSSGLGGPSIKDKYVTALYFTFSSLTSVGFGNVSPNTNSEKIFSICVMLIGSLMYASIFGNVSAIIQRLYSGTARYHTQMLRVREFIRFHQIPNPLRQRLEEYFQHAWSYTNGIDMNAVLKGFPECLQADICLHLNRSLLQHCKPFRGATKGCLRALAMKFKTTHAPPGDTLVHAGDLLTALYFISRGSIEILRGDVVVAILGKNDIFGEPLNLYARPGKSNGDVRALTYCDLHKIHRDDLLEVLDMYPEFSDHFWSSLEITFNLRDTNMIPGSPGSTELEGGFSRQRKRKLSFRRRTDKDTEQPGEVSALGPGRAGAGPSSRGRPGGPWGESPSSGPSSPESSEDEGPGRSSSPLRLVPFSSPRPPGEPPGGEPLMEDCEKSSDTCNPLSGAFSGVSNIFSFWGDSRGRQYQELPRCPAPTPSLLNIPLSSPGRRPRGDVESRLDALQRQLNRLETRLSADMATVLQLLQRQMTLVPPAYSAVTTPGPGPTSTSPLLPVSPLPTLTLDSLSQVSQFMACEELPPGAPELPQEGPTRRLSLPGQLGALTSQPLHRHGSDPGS

SMILES: N=C(N)Nc1nc2ccc(Cl)cc2[nH]1 [ClGBI, 5-chloro-2-guanidinobenzimidazole]
- effect on lymphocyte proliferation (human lymphocytes): completely blocked; also recorded: significant suppression
- potency estimated from few doses (hKV1.4-IR): 188 ± 38 µM
- potency estimated from few doses (hKV1.5): 310 ± 43.6 µM
- potency estimated from few doses (hKV10.1): 77.5 ± 14.2 µM
- inhibition of KCa3.1 (hKCa3.1; 200 μM ClGBI): inhibited KCa3.1 to a small extent
- potency estimated from few doses (hKCa3.1; CHO, estimated from single concentration (200 μM), bimolecular interaction assumed, n = 5, read-out: estimated Kd): 894 ± 134 µM
- potency estimated from few doses (hNaV1.4): 591 ± 123 µM
- potency estimated from few doses (hNaV1.5): 187 ± 35.7 µM
- Kd [1]: ~26 µM
- potency estimated from few doses (hKV11.1 (hERG)): 12 ± 2.1 µM
- Kd [2]: 12 to 894 µM
- time to reach block saturation (hKV1.3 [3]; 200 μM ClGBI): 50 to 100 s
- reduction in current amplitude (hKV1.3 [3]; 200 μM ClGBI, equilibrium block): ~ 75%
- remaining current fraction (RCF) (hKV1.3 [3]; 200 μM ClGBI, equilibrium block, n = 9): 0.25 ± 0.01
- association time constant τon (hKV1.3 [3]; 200 μM ClGBI, single exponential fit, n = 3): 22.1 ± 2.7 s
- reversibility of block on washout (hKV1.3 [3]; after 200 μM ClGBI, perfusion with ClGBI-free ECS): complete recovery from block; also recorded: complete recovery from current inhibition
- Hill coefficient nH (hKV1.3 [3]; two-parameter Hill fit of RCF dose-response): 1.1 ± 0.07
- Kd (hKV1.3 [3]; two-parameter Hill fit of RCF dose-response, human lymphocytes): 72.4 µM and ~72 µM
- potency estimated from few doses (hKV1.1 [4]): 324 ± 13.1 µM

SMILES: CC[N+](CC)(CC)CC [TEA^+, tetraethylammonium]
- Kd (hKV1.3 [5]): 10000 µM
- Kd (hKV1.1 [6]): 300 µM
